Measured values published in patent US9090600B2, “Fungicidal 4-substituted-3-{phenyl[(heterocyclylmethoxy)imino]methyl}-1,2,4-oxadizol-5(4H)-one derivatives” (BAYER INTELLECTUAL PROPERTY GMBH, priority 2011, dated 2015).
Like-named read-outs stand apart in the source and are kept apart here. Marks after values point to notes of the source that are not given here.

Columns and labels:
Phytophthora infestans [1] = format: in vivo; conditions: tomato, preventive spray, 100 ppm of active ingredient, evaluated 7 days after inoculation
Plasmopara viticola = experiment: Plasmopara test (grapevines)/preventive; format: in vivo; conditions: preventive spray, 10 ppm of active ingredient, evaluated 6 days after inoculation
Procedure, shortened: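 Young grapevines sprayed preventively with compound formulated in acetone/dimethylacetamide with emulsifier, diluted in water, then inoculated with P. viticola spores after drying. Held 1 day at ~20 °C/100% RH, 4 days in greenhouse at ~21 °C/~90% RH, then misted for 1 day. Efficacy scored 6 days post-inoculation (0% = untreated control, 100% = no disease).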

Pythium aphanidermatum = experiment: Pythium test (cucumber)/seed treatment; format: in vivo; conditions: 10 g/dt seed of active ingredient, emerged seedlings after 7 days
Experimental: (§1) The test is performed under greenhouse conditions.
Cucumber seeds, treated with the active compound or compound combinations, solved in N-methyl-2-pyrrolidon and diluted with water to the desired dosages, were sown in 6*6 cm pots containing 4 cm of a 1:1 mix of steamed field soil and sand.
Perlite was incubated with mycelium fragments of Pythium aphanidermatum. 5 ml of infected perlite was scattered between the treated […] seeds. Seeds were then covered by the 1:1 mix of steamed field soil and sand. Pots were incubated in the greenhouse 7 days at 24° C. and 80% relative humidity. Assessment consisted of counting of emerged seedlings. 0% means an efficacy which corresponds to that of the control, while an efficacy of 100% means that all seedlings have emerged.

Pythium ultimum = experiment: Pythium test (cotton)/seed treatment; format: in vivo; conditions: 10 g/dt seed of active ingredient, emerged seedlings after 7 days
Experimental: as §1
Cotton seeds, treated with the active compound or compound combinations, solved in N-methyl-2-pyrrolidon and diluted with water to the desired dosages, were sown in 6*6 cm pots containing 4 cm of a 1:1 mix of steamed field soil and sand.
Perlite was incubated with mycelium fragments of Pythium ultimum. 1 ml of infected perlite was scattered between the treated cotton seeds. Seeds were then covered by light expanded clay aggregate. Pots were incubated in the greenhouse 7 days at 20° C. and 80% relative humidity.
(§2) Assessment consisted of counting of emerged seedlings. 0% means an efficacy which corresponds to that of the control, while an efficacy of 100% means that all seedlings have emerged.

Pythium irregulare = experiment: Pythium test (corn)/seed treatment; format: in vivo; conditions: 10 g/dt seed of active ingredient, emerged seedlings after 7 days at 10° C. then 14 days at 20° C.
Experimental: as §1
Corn seeds, treated with the active compound or compound combinations, solved in N-methyl-2-pyrrolidon and diluted with water to the desired dosages, were sown in 6*6 cm pots containing 4 cm of a 1:1 mix of steamed field soil and sand.
Perlite was incubated with mycelium fragments of Pythium irregulare. 5 ml of infected perlite was scattered between the treated cotton seeds. Seeds were than covered by the 1:1 mix of steamed field soil and sand. Pots were incubated in the greenhouse 7 days at 10° C. and 80% relative humidity and then 14 days at 20° C. and 80% relative humidity.
as §2

[2] = pH 2.7
Phytophthora infestans [3] = format: in vivo; conditions: tomato plants, spray, 500 ppm, grading 5 days after contamination
Alternaria brassicae = experiment: In vivo test on Alternaria brassicae (leaf spot of crucifers); conditions: radish plants, spray, 500 ppm, grading 6 to 7 days after contamination
Experimental: (§3) The active ingredients tested are prepared by homogenization in a mixture of acetone/tween/DMSO, then diluted with water to obtain the desired active material.
Radish plants (Pernot variety), sown on a 50/50 peat soil-pozzolana substrate in starter cups and grown at 18-20° C., are treated at the cotyledon stage by spraying with the active ingredient prepared as described above.
Plants, used as controls, are treated with the mixture of acetone/tween/water not containing the active material.
After 24 hours, the plants are contaminated by spraying them with an aqueous suspension of Alternaria brassicae spores (40,000 spores per cm^3). The spores are collected from a 12 to 13 days-old culture.
The contaminated radish plants are incubated for 6-7 days at about 18° C., under a humid atmosphere.
Grading is carried out 6 to 7 days after the contamination, in comparison with the control plants.
Under these conditions, good protection (at least 70%) is observed at a dose of 500 ppm with the following compounds: […]

Uromyces appendiculatus = experiment: In vivo test on Uromyces appendiculatus (brown rust of bean); conditions: Saxa variety plants, spray, 500 ppm, grading 10 days after contamination
Experimental: as §3
Wheat plants (Saxa variety) sown on 50/50 peat soil-pozzolana substrate in starter cups and grown at 24° C., are treated at the 2-leaf stage (9 cm tall) by spraying with the aqueous suspension described above.
(§4) Plants, used as controls, are treated with an aqueous solution not containing the active material.
After 24 hours, the plants are contaminated by spraying the leaves with an aqueous suspension of Uromyces appendiculatus spores (150.000 spores per ml). The spores are collected from a 10-day-old contaminated […] and are suspended in water containing 2.5 ml/l of tween 80 10%. The contaminated […] are incubated for 24 hours at 20° C. and at 100% relative humidity, and then for 10 days at 20° C. and at 70% relative humidity. Grading is carried out 10 days after the contamination, in comparison with the control plants.
(§5) Under these conditions, good (at least 70%) or total protection is observed at a dose of 500 ppm with the following compounds: […]

Pyricularia grisea = format: in vivo; conditions: rice plants, spray, 500 ppm, grading 6 days after contamination
Botrytis cinerea = experiment: In vivo test on Botrytis cinerea (grey mould); conditions: gherkin plants, spray, 500 ppm, grading 4/5 days after contamination
Experimental: The active ingredients tested are prepared by homogenization in a mixture of acetone/Tween/DMSO, then diluted with water to obtain the desired active material
Gherkin plants (Vert petit de Paris variety), sown on a 50/50 peat soil-pozzolana substrate in starter cups and grown at 18-20° C., are treated at the cotyledon Z11 stage by spraying with the active ingredient prepared as described above.
Plants, used as controls, are treated with an aqueous solution not containing the active material. After 24 hours, the plants are contaminated by spraying them with an aqueous suspension of cryopreserved Botrytis cinerea spores (50.000 spores per ml) on upper surface of the leaves. The spores are suspended in a nutrient solution composed of: • 10 g/L of PDB; • 50 g/L of D-fructose; • 2 g/L of NH4NO3; • 1 g/L of KH2PO4.
The contaminated cucumber plants are settled for 4/5 days in a climatic room at 17° C. (day/night) and at 80% relative humidity.
Grading is carried out 4/5 days after the contamination, in comparison with the control plants.
as §5

[4] = system: Mycosphaerella graminicola; experiment: In vivo test on Mycosphaerella graminicola (wheat leaf spot); conditions: wheat plants, spray, 500 ppm, grading 21 to 28 days after contamination
Procedure, shortened: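 Scipion wheat at 1-leaf stage was sprayed with compound suspension (acetone/tween/DMSO diluted in water), then inoculated 24 h later with spores (500.000/ml). Plants were held 72 h at 18° C and 100% RH, then 21 to 28 days at 90% RH. Efficacy was graded as % versus untreated controls.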

Pyrenophora teres = experiment: In vivo test on Pyrenophora teres (barley net blotch); conditions: barley plants, spray, 500 ppm, grading 12 days after contamination
Experimental: The active ingredients tested are prepared by homogenization in a mixture of acetone/Tween/DMSO, then diluted with water to obtain the desired active material concentration.
Barley plants (Plaisant variety), sown on a 50/50 peat soil-pozzolana substrate in starter cups and grown at 22° C. (12 h)/20° C. (12 h), are treated at the 1-leaf stage (10 cm tall) by spraying with the active ingredient prepared as described above.
as §4
After 24 hours, the plants are contaminated by spraying them with an aqueous suspension of Pyrenophora teres spores (12.000 spores per ml). The spores are collected from a 12-day-old culture.
The contaminated barley plants are incubated for 24 hours at about 20° C. and at 100% relative humidity, and then for 12 days at 80% relative humidity.
Grading is carried out 12 days after the contamination, in comparison with the control plants.
Under these conditions, good (at least 70%) is observed at a dose of 500 ppm with the following compounds: […]

Puccinia recondita = experiment: In vivo test on Puccinia recondita (brown rust); conditions: wheat plants, spray, 500 ppm, grading 10 days after contamination
Procedure, shortened: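 Wheat (Scipion) at the 1-leaf stage sprayed with compound suspension (acetone/tween/DMSO diluted in water), then inoculated 24 h later with Puccinia recondita spores at 100.000 spores per ml. Plants were held 24 h at 20 °C/100% RH, then 10 days at 20 °C/70% RH; protection graded 10 days post-inoculation versus untreated controls.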

Row | Structure (SMILES) | Eff. % (Plasmopara viticola) [%] | LogP [2] | Eff. % (Phytophthora infestans [3]) [%] | Eff. % (Pyricularia grisea) [%] | other results
1 | CCOCC(C)OC(=O)Nc1cccc(CO/N=C(/c2ccccc2)c2noc(=O)n2C)n1 (stereo not drawn) [Example 199] | 100 | 3.53 [a] | – | – | Eff. % (Phytophthora infestans [1]): 97%; Eff. % (Pythium aphanidermatum): 99%; Eff. % (Pythium ultimum): 96%; Eff. % (Pythium irregulare): 100%
2 | Cn1c(/C(=N\OCc2cccc(NC(=O)CCCCl)n2)c2ccccc2)noc1=O [Example 34] | – | 3.27 [a] | 99 | – | Eff. % (Alternaria brassicae): 100%
3 | COc1ccccc1OCC(=O)Nc1nc(CO/N=C(/c2ccccc2)c2noc(=O)n2C)cs1 [Example 171] | – | 3.55 [a] | 100 | 80 | Eff. % (Uromyces appendiculatus): 82%
4 | Cc1ccc(C(=O)Nc2nc(CO/N=C(/c3ccccc3)c3noc(=O)n3C)cs2)cc1 [Example 180] | 95 | 3.76 [a] | 98 | – | Eff. % (Botrytis cinerea): 83%
5 | CC(C)CCCC(=O)Nc1cccc(CO/N=C(/c2ccccc2)c2noc(=O)n2C)n1 [Example 95] | 100 | 4.25 [a] | 100 | 70 | –
6 | Cn1c(/C(=N\OCc2cccc(NC(=O)c3ccc(F)cc3)n2)c2ccccc2)noc1=O [Example 364] | 100 | 3.62 [a] | 98 | – | Eff. % (Alternaria brassicae): 92%
7 | Cn1c(/C(=N\OCc2cccc(NC(=O)C3OCCc4ccccc43)n2)c2ccccc2)noc1=O (stereo not drawn) [Example 227] | – | 4.1 [a] | 100 | 96 | –
8 | CCCCCC(=O)Nc1cccc(CO/N=C(/c2ccccc2)c2noc(=O)n2C)n1 [Example 111] | 100 | 3.89 [a] | 100 | – | Eff. % (Phytophthora infestans [1]): 95%; Eff. % (Uromyces appendiculatus): 72%; Eff. % [4]: 100%; Eff. % (Alternaria brassicae): 70%
9 | Cn1c(/C(=N\OCc2cccc(NC(=O)c3cccc(F)c3)n2)c2cccc(F)c2)noc1=O [Example 42] | – | 3.79 [a] | 92 | 71 | –
10 | CCCOC(=O)Nc1nc(CON=C(c2ccccc2)c2noc(=O)n2C)cs1 [Example 265] | – | 3.35 [a] | 93 | 70 | –
11 | C=CCOC(=O)Nc1cccc(CO/N=C(/c2ccccc2)c2noc(=O)n2C)n1 [Example 109] | – | 3.42 [a] | 93 | 70 | –
12 | CCCCCOC(=O)Nc1cccc(CO/N=C(/c2cccc(OC)c2)c2noc(=O)n2C)n1 [Example 36] | – | 4.46 [a] | 85 | – | Eff. % (Botrytis cinerea): 86%; Eff. % (Pyrenophora teres): 71%; Eff. % (Puccinia recondita): 75%
13 | C#CCC(C)(C)OC(=O)Nc1cccc(CO/N=C(/c2ccccc2)c2noc(=O)n2C)n1 [Example 39] | 97 | 3.94 [a] | 100 | – | Eff. % (Uromyces appendiculatus): 81%; Eff. % (Puccinia recondita): 98%; Eff. % (Alternaria brassicae): 83%
14 | Cc1ccc(/C(=N/OCc2csc(N)n2)c2noc(=O)[nH]2)cc1 [Example 308] | – | 1.84 [a] | 89 | – | Eff. % [4]: 100%; Eff. % (Puccinia recondita): 94%; Eff. % (Alternaria brassicae): 90%
15 | Cn1c(/C(=N\OCc2cccc(NC(=O)CCCC[n+]3ccccc3)n2)c2ccccc2)noc1=O.O=C[O-] [Example 67] | – | 1.67 [a] | 89 | – | Eff. % (Botrytis cinerea): 80%; Eff. % [4]: 90%; Eff. % (Puccinia recondita): 98%
16 | Cn1c(C(=NOCc2csc(NC(=O)c3ccc(Cl)cc3Cl)n2)c2ccccc2)noc1=O [Example 262] | – | 3.94 [a] | 78 | – | Eff. % (Alternaria brassicae): 83%
17 | Cn1c(/C(=N\OCc2cccc(NC(=O)C3CC3)n2)c2ccccc2)noc1=O [Example 35] | – | 2.92 [a] | – | – | Eff. % (Botrytis cinerea): 71%; Eff. % (Pyrenophora teres): 100%
18 | Cn1c(/C(=N\OCc2cccc(NC(=O)OC(CCl)CCl)n2)c2ccccc2)noc1=O [Example 306] | – | 3.83 [a] | 100 | 90 | –
19 | C=CCCCCC(=O)Nc1cccc(CO/N=C(/c2ccccc2)c2noc(=O)n2C)n1 [Example 167] | 86 | 3.89 [a] | 98 | 96 | –
20 | CCCC(C)OC(=O)Nc1cccc(CO/N=C(/c2ccccc2)c2noc(=O)n2C)n1 (stereo not drawn) [Example 282] | 96 | 4.36 [a] | 98 | – | Eff. % (Phytophthora infestans [1]): 92%; Eff. % (Pythium aphanidermatum): 100%; Eff. % (Pythium irregulare): 90%
21 | Cn1c(/C(=N\OCc2cccc(NC(=O)COCc3ccccc3)n2)c2ccccc2)noc1=O [Example 278] | – | 3.87 [a] | 100 | – | Eff. % (Botrytis cinerea): 78%
